According to ChEMBL document CHEMBL1201862, “PubChem BioAssay data set” (2004):
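Five compound concentrations were applied to cells in 96-well plates for 48 hours; endpoints were derived by simple linear interpolation of the resulting dose-response curve. The concentration for 50% growth inhibition is given as GI50.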 Activity calls are given as the source filed them. Cut-off read from the data, not from the text of the source: active = GI50 up to about 1.1 µM and inactive = higher.

Assays:
Assay in all cases: NCI-60 cell line screen, 48 h
A498 = test system: A498
HCT-116 = test system: HCT-116
HCT-15 = test system: HCT-15
HL-60 = test system: HL-60
HOP-92 = test system: HOP-92
KM-20L2 = test system: KM-20L2
MOLT-4 = test system: MOLT-4
Malme-3M = test system: Malme-3M
OVCAR-8 = test system: OVCAR-8
SF-268 = test system: SF-268
SK-OV-3 = test system: SK-OV-3
SNB-19 = test system: SNB-19
SNB-75 = test system: SNB-75
UACC-257 = test system: UACC-257
UO-31 = test system: UO-31
CAKI-1 = test system: CAKI-1

Row | SMILES | GI50 (A498) | GI50 (HCT-116) | GI50 (HCT-15) [µM] | GI50 (HL-60) | GI50 (HOP-92) | GI50 (KM-20L2) | GI50 (MOLT-4) | GI50 (Malme-3M) | GI50 (OVCAR-8) | GI50 (SF-268) | GI50 (SK-OV-3) | GI50 (SNB-19) | GI50 (SNB-75) | GI50 (UACC-257) | GI50 (UO-31) | GI50 (CAKI-1)
1 | O=C(O)c1oc2cccc3c2c1CCC3 | > 100 µM (inactive) | > 100 µM (inactive) | > 100 | > 100 µM (inactive) | > 100 µM (inactive) | > 10 µM (inactive) | > 100 µM (inactive) | > 100 µM (inactive) | > 100 µM (inactive) | > 100 µM (inactive) | > 100 µM (inactive) | > 100 µM (inactive) | 99.3 µM (inactive) | > 100 µM (inactive) | 12.8 µM (inactive) | 
2 | O=C(NCC(=O)N1CCOC1=O)OCc1ccccc1 | > 100 µM (inactive) | > 100 µM (inactive) | > 100 | > 100 µM (inactive) | > 100 µM (inactive) | > 100 µM (inactive) | > 100 µM (inactive) |  | > 100 µM (inactive) | > 100 µM (inactive) | > 100 µM (inactive) | > 100 µM (inactive) | > 100 µM (inactive) | > 100 µM (inactive) | > 100 µM (inactive) | 
3 | OC1=CN=C(c2ccccc2)Oc2ccccc21 | > 100 µM (inactive) | 45.4 µM (inactive) | > 100 | > 100 µM (inactive) | > 100 µM (inactive) | > 100 µM (inactive) | > 100 µM (inactive) | > 100 µM (inactive) | > 100 µM (inactive) | 41.4 µM (inactive) | > 100 µM (inactive) | 42.5 µM (inactive) | 30.7 µM (inactive) | > 100 µM (inactive) | > 100 µM (inactive) | 
4 | Cc1cc(N(CCC#N)S(=O)(=O)c2ccccc2)ccc1/C=C1\N=C(c2ccc(Cl)cc2)OC1=O | > 100 µM (inactive) | > 100 µM (inactive) | > 100 | > 100 µM (inactive) | > 100 µM (inactive) | > 100 µM (inactive) | > 100 µM (inactive) | > 100 µM (inactive) | > 100 µM (inactive) | > 100 µM (inactive) |  | > 100 µM (inactive) |  | > 100 µM (inactive) | > 100 µM (inactive) | > 100 µM (inactive)
5 | CN(O)C(=O)Cc1ccccc1 |  | > 100 µM (inactive) |  | > 100 µM (inactive) | > 100 µM (inactive) | > 100 µM (inactive) | > 100 µM (inactive) | > 100 µM (inactive) | > 100 µM (inactive) | > 100 µM (inactive) | > 100 µM (inactive) | > 100 µM (inactive) | 67 µM (inactive) | > 100 µM (inactive) | > 100 µM (inactive) | > 100 µM (inactive)
6 | COc1ccc2c(c1)N1CCc3cc(OC)c(OC)cc3C1C2 (stereo not given) | 41.4 µM (inactive) |  |  | 26.2 µM (inactive) | 79.8 µM (inactive) | 73.3 µM (inactive) | 26 µM (inactive) | 30.5 µM (inactive) | > 100 µM (inactive) | > 100 µM (inactive) | > 100 µM (inactive) | > 100 µM (inactive) |  | 57.9 µM (inactive) | 85.9 µM (inactive) | 53.2 µM (inactive)
7 | O=[N+]([O-])C=C(c1ccc(Cl)cc1)c1ccc(Cl)cc1 | 20 µM (inactive) | 17.7 µM (inactive) | 17.2 | 17.1 µM (inactive) |  | 18.9 µM (inactive) | 17.9 µM (inactive) |  | 17.6 µM (inactive) |  |  | 18.5 µM (inactive) | 21.7 µM (inactive) | 20.8 µM (inactive) | 14.2 µM (inactive) | 16.6 µM (inactive)
8 | Cc1ccc(C)c(NC(=O)CCC(=O)CC(=O)C(C)(C)C)c1 | > 100 µM (inactive) | > 100 µM (inactive) | > 100 |  | > 100 µM (inactive) | > 100 µM (inactive) | > 100 µM (inactive) | > 100 µM (inactive) | > 100 µM (inactive) | > 100 µM (inactive) | > 100 µM (inactive) | > 100 µM (inactive) | > 100 µM (inactive) | > 100 µM (inactive) | > 100 µM (inactive) | > 100 µM (inactive)
9 | O=C1[C@@H]2C(c3ccncc3)=NO[C@@H]2C(=O)N1c1ccc(Cc2ccc(N3C(=O)[C@H]4C(c5ccncc5)=NO[C@H]4C3=O)cc2)cc1 | > 100 µM (inactive) |  | > 100 | > 100 µM (inactive) | > 100 µM (inactive) | > 100 µM (inactive) | > 100 µM (inactive) | 99.1 µM (inactive) | > 100 µM (inactive) | > 100 µM (inactive) | > 100 µM (inactive) |  | > 100 µM (inactive) | > 100 µM (inactive) | > 100 µM (inactive) | > 100 µM (inactive)
10 | O=C(Nc1ccn(CCI)c(=O)n1)c1ccccc1 | > 100 µM (inactive) | > 100 µM (inactive) | > 100 | > 100 µM (inactive) | > 100 µM (inactive) | > 100 µM (inactive) |  | > 100 µM (inactive) | > 100 µM (inactive) | > 100 µM (inactive) | > 100 µM (inactive) |  | > 100 µM (inactive) | > 100 µM (inactive) | > 100 µM (inactive) | > 100 µM (inactive)
11 | O=C1OC(c2ccccc2)=N/C1=C\c1ccc2ccccc2c1 | > 100 µM (inactive) | > 100 µM (inactive) | > 100 |  | > 100 µM (inactive) | > 100 µM (inactive) | > 100 µM (inactive) | > 100 µM (inactive) | > 100 µM (inactive) | > 100 µM (inactive) | > 100 µM (inactive) | > 100 µM (inactive) | > 100 µM (inactive) | > 100 µM (inactive) | > 100 µM (inactive) | > 100 µM (inactive)
12 | Sc1nnc(-c2ccnc(-c3nnc(S)[nH]3)c2)[nH]1 | > 100 µM (inactive) | > 100 µM (inactive) | > 100 | > 100 µM (inactive) |  | > 100 µM (inactive) | > 100 µM (inactive) | > 100 µM (inactive) | > 100 µM (inactive) | > 100 µM (inactive) | > 100 µM (inactive) | > 100 µM (inactive) |  | > 100 µM (inactive) | > 100 µM (inactive) | > 100 µM (inactive)
13 | CCOC(=O)c1nc(C)oc1C(F)(F)F | > 100 µM (inactive) | > 100 µM (inactive) | > 100 | > 100 µM (inactive) | > 100 µM (inactive) | > 100 µM (inactive) | > 100 µM (inactive) | > 100 µM (inactive) | > 100 µM (inactive) | > 100 µM (inactive) | > 100 µM (inactive) | > 100 µM (inactive) | > 100 µM (inactive) | > 100 µM (inactive) | > 100 µM (inactive) | > 100 µM (inactive)
14 | OC(CCl)CN1CC[N+]2(CC1)CC[N+]1(CCN(CC(O)CCl)CC1)CC2 (stereo not given) [PROSPIDIUM CHLORIDE] | > 50 µM (inactive) | > 50 µM (inactive) | > 50 | > 50 µM (inactive) | > 50 µM (inactive) | > 50 µM (inactive) | > 50 µM (inactive) | > 50 µM (inactive) | > 50 µM (inactive) | > 50 µM (inactive) | > 50 µM (inactive) | > 50 µM (inactive) | > 50 µM (inactive) |  | > 50 µM (inactive) | > 50 µM (inactive)
